Reference: US20130171198A1, “ANTIMICROBIAL AND VULNERARY ACTION PHARMACEUTICAL COMPOSITION FOR EXTERNAL APPLICATION AND ITS PRODUCTION PROCESS” (priority 2010, published 2013)

What was measured:
[1] = Fosfomycin sorption by BHSiO2 particles; type: physicochemical
Source text: Fosfomycin sorption rate by BHSiO2 particles was 20-25%.

[2] = Incision model, guiney pigs, external application of powder; type: in vivo; settings: for Incision length (cm) Me: powder form, external application daily
Method: (§1) The experiments were conducted using adult rabbits “Chinchilla” (males, weight 3-3.5 kg) and random bred guiney pigs (males, weight 0.8-0.9 kg) according to the “Regulations for test animals use” (USSR Ministry of health order supplement #755 from 12.08. 1977). There have been made several incisions with a sterile scalpel on the left and right side of the depilated coupling area (1.5% novocain solution was used for local anesthesia); incision 2 cm long and 0.8 cm deep with muscular layer seizure for guiney pigs and 2 cm long and 1 cm deep with muscular layer seizure for rabbits. Each day in 8 days period (starting with the very first day) the wounds of the animals control group was bathed with a sterile normal saline solution, were covered with a sterile tissue fixed with a plaster. The wounds of the test group animals were bathed with a sterile saline solution, then dried and then dusted with fosfomycin sterile powder uniform layer (2-3 mm) or a same layer pharmaceutical composition (for guiney pigs), the wounds of the test rabbits were irrigated with a sterile 2.5% fosfomycin solution or sterile 5% pharmaceutical composition suspension, after that they were dried and covered with a sterile tissue fixed with a plaster. The regenerative process dynamics was monitored during 9 days. The medics measured the length of the wound open area and made a visual evaluation of wound edges and walls, the presence and character of the exudates, necrosis presence. The test results can be seen in Tables No 2 and No 3. The statistical data processing has been made with a program Statistica 6.0. The experimental data are presented as median (Me), Low and High quartile (LQ-HQ), the difference authenticity has been calculated using Student t-criterion with p<0.05 values.

[3] = Incision model, rabbits, external application of solution/suspension; type: in vivo; settings: for Incision length (cm) Me: 2.5% fosfomycin solution or 5% composition suspension
Method: as §1

[4] = system: infected S. aureus thermal burn; test: Infected thermal burn model, guiney pigs; type: in vivo; settings: for Necrosis area (cm^2) / Thermal burn area (cm^2): 2.5% solution or 5% suspension
Method: The experiments were conducted using adult rabbits “Chinchilla” (males, weight 3-3.5 kg) and random bred guiney pigs (males, weight 0.8-0.9 kg) according to the “Regulations for test animals use” (USSR Ministry of health order supplement #755 from 12.08. 1977). There have been made several skin integument burnings with a warmed up on the burner flame metallic applicator on the left and right side of the depilated coupling area (1.5% novocain solution was used for local anesthesia) by attaching it to the skin and holding for 40 seconds. In the center of the ambustial area there has been intracutaneously inserted Staphylococcus aureus (ATCC No 25923 F-49) daily suspension with a 0.1 ml volume in a 10^10 CFU/ml dosage. Each day in 13 days period (starting with the very first day) the burnings of the animals control group was bathed with a sterile normal saline solution, dried and covered with a sterile tissue fixed with a plaster. The burnings of the test animals were irrigated with a sterile 2.5% fosfomycin solution or sterile 5% pharmaceutical composition suspension, after that they were dried and covered with a sterile tissue fixed with a plaster. The burnings condition dynamics was monitored during 14 days. The medics measured the burning wound surface and necrosis area in the center of the burning wound. You may see the results in the table No 4. The statistical data processing has been made with a program Statistica 6.0. The experimental data are presented as median (Me), Low and High quartile (LQ-HQ), the difference authenticity has been calculated using Student t-criterion with p<0.05 values.

[5] = 2.5% solution / 5% water suspension

C[C@@H]1O[C@@H]1P(=O)(O)O [Fosfomycin, fosfomycin]
Fosfomycin sorption rate by BHSiO2 particles [1]: 20-25% | Incision length (cm) Me ([2]; Day 2): 0.9 cm | Incision length (cm) Me ([2]; Day 6): 0.5 cm | Incision length (cm) Me ([2]; Day 9): 0.3 cm | Incisions regeneration process versus control group ([2]; powder forms): authentically increase incisions regeneration process comparing to the control group | Incision length (cm) Me ([3]; Day 2): 0.5 cm | Incision length (cm) Me ([3]; Day 6): 0.4 cm | Incision length (cm) Me ([3]; Day 9): 0.25 cm | Incisions regeneration process versus control group [3, 5]: authentically increase incisions regeneration process comparing to the control group | Infected S. aureus thermal burn regeneration process versus control group [4, 5]: authentically increase infected S. aureus thermal burn regeneration process comparing to the control group | Necrosis area (cm^2) ([4]; Day 2): 0.0 cm^2 | Thermal burn area (cm^2) ([4]; Day 2): 1.2 cm^2 | Necrosis area (cm^2) ([4]; Day 6): 0.3 cm^2 | Thermal burn area (cm^2) ([4]; Day 6): 0.8 cm^2 | Necrosis area (cm^2) ([4]; Day 9): 0.25 cm^2 | Thermal burn area (cm^2) ([4]; Day 9): 0.7 cm^2 | Necrosis area (cm^2) ([4]; Day 14): 0.2 cm^2 | Thermal burn area (cm^2) ([4]; Day 14): 0.4 cm^2
